Each block holds one molecule with its values, some of them ahead of it.
Tests used:
[1] = Elimination half life in human; conditions: in vivo
D1 receptor = D1 receptor (Homo sapiens, UniProt P21728); assay: PET study in healthy subjects, D1 receptor occupancy (11C-SCH23390); type: in vivo; conditions: read-out: D1 receptor occupancy in putamen
rats [2] = conditions: fumarate salt; cited from earlier work
D2 receptor = D2 receptor (Homo sapiens, UniProt P14416); assay: PET study in healthy subjects, D2 receptor occupancy (11C-raclopride); type: in vivo; conditions: read-out: D2 receptor occupancy in the putamen
Sequence of D2 receptor (P14416 whole entry): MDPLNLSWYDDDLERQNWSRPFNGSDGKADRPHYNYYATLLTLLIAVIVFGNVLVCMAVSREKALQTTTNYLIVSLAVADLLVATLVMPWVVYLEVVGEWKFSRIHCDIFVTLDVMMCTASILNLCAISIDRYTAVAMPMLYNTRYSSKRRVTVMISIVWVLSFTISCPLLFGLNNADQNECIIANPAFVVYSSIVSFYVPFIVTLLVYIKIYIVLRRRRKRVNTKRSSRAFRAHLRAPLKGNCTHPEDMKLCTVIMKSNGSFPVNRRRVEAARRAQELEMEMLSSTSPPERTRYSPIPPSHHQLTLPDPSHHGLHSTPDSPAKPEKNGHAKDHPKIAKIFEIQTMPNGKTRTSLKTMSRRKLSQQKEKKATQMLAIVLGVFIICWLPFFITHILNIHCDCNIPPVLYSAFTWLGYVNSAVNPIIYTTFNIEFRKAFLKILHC

D2 receptors = target: T1, D2 receptors (Rattus norvegicus, UniProt P61169); assay: In vivo binding to D2 receptors in rat brain ([3H]-raclopride); conditions: sc, subcutaneous
T1 construct: the brain quickly removed and striatum and cerebellum dissected out and homogenized; from tissue; host or cells: striatum of male Wistar rats (in vivo)
T1 sequence (P61169 whole entry): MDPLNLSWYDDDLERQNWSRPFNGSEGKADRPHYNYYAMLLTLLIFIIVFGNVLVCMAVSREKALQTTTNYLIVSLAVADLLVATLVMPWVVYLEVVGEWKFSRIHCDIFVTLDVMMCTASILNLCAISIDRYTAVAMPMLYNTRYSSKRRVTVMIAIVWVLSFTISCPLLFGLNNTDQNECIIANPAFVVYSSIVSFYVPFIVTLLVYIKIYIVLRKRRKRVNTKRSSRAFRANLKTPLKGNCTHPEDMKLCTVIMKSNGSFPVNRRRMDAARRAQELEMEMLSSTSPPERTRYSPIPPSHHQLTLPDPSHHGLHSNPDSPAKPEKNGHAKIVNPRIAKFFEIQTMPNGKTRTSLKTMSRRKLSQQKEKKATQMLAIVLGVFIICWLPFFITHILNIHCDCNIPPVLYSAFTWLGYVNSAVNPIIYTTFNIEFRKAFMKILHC
Protocol: Description of In Vivo Binding to D2 Receptors in Rat Brain
In vivo binding is carried out according to Andersen et al (Eur J Pharmacol, (1987) 144:1-6) with a few modifications (Kapur S. et al, J Pharm Exp Ther, 2003, 305, 625-631). Briefly, 6 rats (male Wistar, 180-200 g) are treated with 20 mg/kg test compound subcutaneous 30 minutes before receiving 9.4 micro Ci [^3H]-raclopride intravenous via the tail vein.
15 minutes after the injection of the radio ligand the animals are killed by cervical dislocation, the brain quickly removed and striatum and cerebellum dissected out and homogenized in 5 mL (cerebellum in 20 mL) ice-cold buffer (50 mM K2PO4, pH 7.4). 1.0 mL of the homogenate is filtered through 0.1% PEI—soaked Whatman GF/C filters. This is completed within 60 seconds subsequent to the decapitation. Filters are washed 2 times with 5 mL ice-cold buffer and counted in a scintillation counter. A group of vehicle treated animals is used to determine [^3H]-raclopride total binding in striatum and non-specific binding in cerebellum. The homogenate is measured for protein content by the BCA protein determination assay (Smith P. K. et al (1985) Anal. Biochem., 150: 6-85).

rats [3] = assay: Condition avoidance response (CAR) model in rats; type: in vivo, rat; conditions: at very low levels of D2 receptor occupancy
schizophrenic patients = assay: Randomized, double-blind study of daily vs weekly dosing in schizophrenic patients, PANSS Total Score; type: in vivo, human
From the text: The study is a randomized, double-blind, parallel-group, exploratory study of safety, tolerability and PK of daily dosing vs weekly dosing of Compound (I) in schizophrenic patients.
The open-label period (OL_Period) is the period from start of open-label treatment (baseline) until stop of open-label treatment (at OL-withdrawal or randomisation to double-blind treatment, whichever occurs first).
The double-blind period (DB_Period) is the period from start of double-blind treatment (randomisation) until stop of double-blind treatment (at DB-withdrawal or completion, whichever occurs first), that is, the entire double-blind period including the PBO_Period.
The IMP dosing period (IMP_Period) is the period from start of open-label treatment (baseline) until stop of double-blind treatment (at withdrawal or completion, whichever occurs first), that is, the OL_Period plus the DB_Period.
A study was conducted with a study design as described in Example 2.

[4] = 2 mg/day given daily for 18 days
[5] = 10 mg/day given daily for 18 days

Sequence of D1 receptor (P21728 whole entry): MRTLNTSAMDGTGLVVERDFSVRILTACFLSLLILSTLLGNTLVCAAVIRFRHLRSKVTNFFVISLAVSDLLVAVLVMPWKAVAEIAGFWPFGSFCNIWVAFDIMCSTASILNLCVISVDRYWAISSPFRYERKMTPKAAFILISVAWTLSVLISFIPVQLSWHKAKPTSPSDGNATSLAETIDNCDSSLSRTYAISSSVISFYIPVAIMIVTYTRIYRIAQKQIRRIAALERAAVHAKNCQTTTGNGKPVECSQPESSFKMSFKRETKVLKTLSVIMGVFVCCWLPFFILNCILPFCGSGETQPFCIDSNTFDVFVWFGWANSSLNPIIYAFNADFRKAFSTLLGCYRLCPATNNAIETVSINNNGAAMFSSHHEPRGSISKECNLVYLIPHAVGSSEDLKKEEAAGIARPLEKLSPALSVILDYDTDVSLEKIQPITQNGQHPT

half-life [1]: 300 to 400 h
Compound: CC1(C)CN([C@@H]2C[C@@H](c3ccccc3)c3ccc(Cl)cc32)CCN1 (relative stereo) [Compound (II), trans-1(6-chloro-3-phenyl-indan-1-yl)-3,3-dimethyl-piperazine]

receptor occupancy at 2 mg (D1 receptor; [4]): 32%
receptor occupancy at 10 mg (D1 receptor; [5]): 69%
receptor occupancy at 2 mg (D2 receptor; [4]): 11%
receptor occupancy at 10 mg (D2 receptor; [5]): 43%
ED50 (D2 receptors): 4.1 mg/kg
half-life [1]: ~150 h
Compound: CN1CCN([C@@H]2C[C@@H](c3ccccc3)c3ccc(Cl)cc32)CC1(C)C [Compound (I), 4-((1R,3S)-6-chloro-3-phenyl-indan-1-yl)-1,2,2-trimethyl-piperazine]
induction of catalepsy (rats [2]): does not induce catalepsy
antipsychotic activity in CAR model (rats [3]): possesses antipsychotic activity
Mean (change in PANSS) Total Score from randomization (schizophrenic patients; 10 mg/day, study day 29): 1.55
Mean (change in PANSS) Total Score from randomization (schizophrenic patients; 10 mg/day, study day 36): −1.00
Mean (change in PANSS) Total Score from randomization (schizophrenic patients; 10 mg/day, study day 43): −2.50
Mean (change in PANSS) Total Score from randomization (schizophrenic patients; 10 mg/day, study day 50): −3.50
Mean (change in PANSS) Total Score from randomization (schizophrenic patients; 10 mg/day, study day 57): −5.80
Mean (change in PANSS) Total Score from randomization (schizophrenic patients; 20 mg/week, study day 29): 0.00
Mean (change in PANSS) Total Score from randomization (schizophrenic patients; 20 mg/week, study day 36): 0.80
Mean (change in PANSS) Total Score from randomization (schizophrenic patients; 20 mg/week, study day 43): −2.00
Mean (change in PANSS) Total Score from randomization (schizophrenic patients; 20 mg/week, study day 50): −1.22
Mean (change in PANSS) Total Score from randomization (schizophrenic patients; 20 mg/week, study day 57): −4.38
Mean (change in PANSS) Total Score from randomization (schizophrenic patients; 30 mg/week, study day 29): 1.09
Mean (change in PANSS) Total Score from randomization (schizophrenic patients; 30 mg/week, study day 36): 0.50
Mean (change in PANSS) Total Score from randomization (schizophrenic patients; 30 mg/week, study day 43): 4.00
Mean (change in PANSS) Total Score from randomization (schizophrenic patients; 30 mg/week, study day 50): −4.14
Mean (change in PANSS) Total Score from randomization (schizophrenic patients; 30 mg/week, study day 57): −5.43
Mean (change in PANSS) Total Score from randomization (schizophrenic patients; 45 mg/week, study day 29): 0.40
Mean (change in PANSS) Total Score from randomization (schizophrenic patients; 45 mg/week, study day 36): −3.50
Mean (change in PANSS) Total Score from randomization (schizophrenic patients; 45 mg/week, study day 43): −5.70
Mean (change in PANSS) Total Score from randomization (schizophrenic patients; 45 mg/week, study day 50): −8.00
Mean (change in PANSS) Total Score from randomization (schizophrenic patients; 45 mg/week, study day 57): −6.88
reduction in PANSS Total Score compared with daily dose of 10 mg/day (schizophrenic patients; once weekly, 20 mg/week to 45 mg/week, in particular 30 and 45 mg/week): as effective in reduction in PANSS Total Score as a daily dose of 10 mg/day
reduction of PANSS Total Score compared with daily dose of 10 mg/day (schizophrenic patients; once weekly, between about 30 mg/week and about 45 mg/week): at least to the same extend as a daily dose of 10 mg/day
